We go through 2 compounds from patent US20230293478A1, “NITROGEN-CONTAINING ANALOGS OF SALINOMYCIN FOR USE IN ACUTE MYELOID LEUKEMIA” (Centre National de la Recherche Scientifique (CNRS), priority 2020, published 2023).

One test relates to KG1. Description: IC50 determination (resazurin), KG1. In kind it is cell-based. Particulars: Homo sapiens, KG-1; KG1 cell line, 72 hours. The procedure:
(§1) Cells were seeded at a constant density prior to treatment in triplicate and treated with either ironomycin or DMSO over the indicated time period. Drug was refreshed at least every two days. Cells were stained with DAPI and live cell number was calculated using the BD FACSVerse (BD Biosciences). CellTitreGlo (Promega) assays were performed as per manufacturer's instructions in a 96 well plate format. To determine the half-maximal inhibitory concentration (IC50) for ironomycin, 24 h after seeding the cells at a constant density in triplicate, cells were treated with ironomcyin or DMSO for 72 hours. At day 3, after incubating the cells with 600 μM of resazurin for 6 h, fluorescence was measured at λex=530 nm and λem=590 nm, using a Microplate Reader (EnSpire, Perkin Elmer). Relative fluorescence units were converted to per cent of inhibition relative to controls on the same plate, and the data were fitted against a four-parameter logistic model to determine the IC50.

In the next test the test system is KASUMI-1. Description: IC50 determination (resazurin), KASUMI-1. Particulars: Homo sapiens; KASUMI-1 cell line, 72 hours. Format: cell-based. As for the experimental part:
as §1
(In general: Resazurin is reduced to fluorescent resorufin, in cell work by metabolically active cells.)

In the next test the test system is HL-60. Description: IC50 determination (resazurin), HL-60. Format: cell-based. To be noted: Homo sapiens; HL-60 cell line, 72 hours. As for the experimental part:
as §1

A further test relates to NOMO-1. Description: IC50 determination (resazurin), NOMO-1. Particulars: Homo sapiens; NOMO-1 cell line, 72 hours. In kind it is cell-based. The procedure: as §1
The next test concerns SKM-1. Description: IC50 determination (resazurin), SKM-1. Format: cell-based. To be noted: Homo sapiens; SKM-1 cell line, 72 hours. As for the experimental part:
as §1

In the next test the test system is NB4. Description: IC50 determination (resazurin), NB4. Format: cell-based. Particulars: Homo sapiens, NB-4; NB4 cell line, 72 hours. As for the experimental part:
as §1

The next test deals with MV4-11. Description: IC50 determination (resazurin), MV4-11. To be noted: Homo sapiens; MV4-11 cell line, 72 hours. Format: cell-based. The procedure: as §1
The test system of the next test is MOLM-13. Description: IC50 determination (resazurin), MOLM-13. Particulars: Homo sapiens; MOLM-13 cell line, 72 hours. In kind it is cell-based. The procedure:
as §1

The subject of the next test is OCI-AML3. Description: IC50 determination (resazurin), OCI-AML3. In kind it is cell-based. To be noted: Homo sapiens, OCI-AML-3; OCI-AML3 cell line, 72 hours. As for the experimental part:
as §1

For a further test, the system named is HEL 92.1.7. Description: IC50 determination (resazurin), HEL 92.1.7. To be noted: Homo sapiens; HEL 92.1.7 cell line, 72 hours. In kind it is cell-based. As for the experimental part: as §1
The subject of another test is K 562. Description: IC50 determination (resazurin), K 562. In kind it is cell-based. Particulars: Homo sapiens, K562; K 562 cell line, 72 hours. The procedure:
as §1

Another test relates to human AML cell lines. Description: IC50 determination across various human AML cell lines. Format: cell-based. To be noted: range over various human AML cell lines, 72 hours; read-out: Half maximal inhibitory concentration (IC50). As for the experimental part: as §1
For a further test, the system named is AML cell lines. Description: Cell proliferation and PI cell death in AML cell lines. In kind it is cell-based, human. Particulars: all AML cell lines tested. As for the experimental part: as §1
(§2) Cell death, cells were washed once with PBS and assessed using propidium iodide PI from staining (Sigma) according to manufacturer's instructions. Lipid peroxidation was assessed with BODIPYC11 staining (Thermo Fisher D3861). Cell were washed once with PBS and stained for 30 minutes in the dark at room temperature in 1 ml of 7.5 μM PBS solution, washed once and assessed according to manufacturer's instructions. […]

Test [1] has as its system MV4,11 cells transplanted into NSG mice. Description: AML xenograft model, survival. In kind it is in vivo, mouse. Particulars: 5 days/week for 4 weeks, single agent. As for the experimental part:
Ironomycin was dissolved in PBS+2.5% DMSO. […] Animals were euthanized at the completion of treatment.

Test [2] concerns cleaved PARP1 and cleaved caspase 3 in MOLM-13 cell line. Description: Immunoblot of cleaved PARP1 and cleaved caspase 3. In kind it is cell-based, human. To be noted: 500 nM, 24 h. As for the experimental part: Cells were lysed in 20 mM HEPES pIH7.9, 0.5 mM EDTA, 2% SDS plus 1× protease inhibitor cocktail (Roche) by brief sonication. Lysates were heated to 95° C. in SDS sample buffer with 50 mM DTT for 5 min, separated by SDS-PAGE and transferred to PVDF membrane (Millipore). Membranes were blocked in 5% milk or BSA in TBS +0.1% Tween-20, probed with the indicated antibodies, and reactive bands visualised using ECL Prime (GE).
(In western blotting, separated proteins are transferred to a membrane and probed.)

For test [3], the system named is WT MV4; 11 cell line. Description: Cell death analysis (PI, Cell titer glow) in WT MV4;11. Format: cell-based, human. To be noted: 24 h. As for the experimental part: as §1, §2
For orientation: Cellular ATP, detected with luciferase, serves as a proxy for viable cell number.

The test system of test [4] is lysosomal iron in MOLM13 cells. Description: Lysosomal iron, RhoNoxM probe flow cytometry. Format: cell-based, human. The procedure: Ironomycin (AM5) and AM23 were synthesized as previously described (Mai et al., 2017), venetoclax (ABT-199), biranapant and IDN-6556 are commercially available. Metformin and phenformin, were purchased from sigma (PHR1084 and PHR1573) and reconstituted freshly in culture medium. Turn-off Fe2+ probe (Petrat et al., 2002) was synthesized as previously reported (Muller et al., 2018), dose was 1 μM for 1 h for flow cytometry experiments. RhonoxM (Hirayarna et al., 2013) was synthesized as previously reported (Mai et al., 2017), dose was 1 μM, 1 h for flow cytometry experiments. Liproxstatin-1 (sigma SML1414, DMSO), ferrostatin (sigma SML0583, DMSO), RSL3 (sigma SML2234, DMSO), 6 aminonicotidamide (sigma A68203, DMSO), Z-VADfmk (R&D system FMK001, DMSO).

In test [5] the test system is mitochondrial iron in MOLM13 cells. Description: ICP-MS iron on isolated mitochondria. Format: cell-based, human. To be noted: ICP-MS on isolated mitochondria after treatment.
For test [6], the system named is mitochondrial ROS in MV4; 11 and OCI-AML3. Description: Mitochondrial ROS, Mitosox Red flow cytometry. Format: cell-based, human. To be noted: 500 nM, 24 hours.
Test [7] has as its system lipid ROS in OCIAML3 and MOLM-13 cells. Description: Lipid peroxidation, C11 BODIPY 581/591 staining. In kind it is cell-based, human. To be noted: 500 nM, 48 hours. As for the experimental part:
(§3) Cell death, cells were washed once with PBS and assessed using propidium iodide PI from staining (Sigma) according to manufacturer's instructions. Lipid peroxidation was assessed with BODIPYC11 staining (Thermo Fisher D3861). Cell were washed once with PBS and stained for 30 minutes in the dark at room temperature in 1 ml of 7.5 μM PBS solution, washed once and assessed according to manufacturer's instructions. Mitochondrial ROS were assessed with mitosox red probe (thermofisher M36008) according to manufacturer's instructions. All flow cytometry analyses were performed on a LSR Fortessa X-20 flow cytometer (BD Biosciences) and all data analysed with FlowJo. Cell sorting was performed on a FACSAria Fusion 5 (BD Biosciences).

In test [8] the test system is mitochondria in MV4; 11 cells. Description: Transmission electron microscopy of mitochondria. In kind it is cell-based, human. Particulars: 500 nM, 16 h. As for the experimental part:
Cells were fixed in 2% GA in 0.1M sodium cacodylate buffer for 2 hours at room temperature, rinsed with 0.1M na-cacodylaatbuffer (5×10 min), and posffixation was done with 1% Osmium tetroxide and 1.5% Potassium ferricyanide for 2 hours at 4C in the dark. After rinsing in milliQ water, cells were stained with 0.5% Uranylacetate in MQ (±PH 4) for 1 h at 4° C. Cells were scraped and embedded in low melting agarose before serial dehydration in ethanol followed by propylene oxide and embedding into epon-araldyte resin. After polymerisation of the resin at 65 C for 48 hours, ultrathin sections were cut on a Leica UCT ultramicrotome and sections stained with uranyl acetate and lead citrate. Sections were examined on a Jeol JEM-1400Plus transmission electron microscope equipped with a Matataki flash camera at 80 keV.

The test system of test [9] is WT MV4; 11 cell line. Description: PI cell death in medium with different glucose concentration. Format: cell-based, human. To be noted: 500 nM, 48 h. As for the experimental part: as §3
For test [10] the following is noted: Mai et al., 2017; cited from earlier work.
The test system of test [11] is primary AML samples derived from patients with venetoclax resistant or refractory disease. Description: Primary patient synergy analysis (PI viability, Bliss). To be noted: monotherapy, 1 μM, 5 days, five primary samples. In kind it is cell-based, human. The procedure: Samples were collected from patients with AML treated at the Alfred Hospital after obtaining informed consent. Studies were conducted in accordance with the approved protocols through the Human Research Ethics Committee of the Alfred Hospital and the Declaration of Helsinki for all subjects. Primary AML cells were cultured in StemSpan SFEM (Stemcell Technologies) supplemented with 10 ng/mL IL-3, 10 ng/mL IL-6, 50 ng/mL SCF and 50 ng/mL FLT3L (all Peprotech) and 35 nM UM171 and 500 nM stemreginin (StemCell Technologies). For primary patient synergy analyses, 50,000 AML cells were plated in each well of a 96-well plate, and cultured with escalating doses of ironomycin and venetoclax for 5 days in medium conditions as described above. After 5 days, viability was assessed via propidium iodide staining and flow cytometry (BD FACSCanto). Synergy was determined using the Bliss synergy model.

For `C#CCN[C@@H]1C=C[C@]2(O[C@H]([C@@H](CC)C(=O)[C@@H](C)[C@@H](O)[C@H](C)[C@@H]3O[C@@H]([C@@H](CC)C(=O)O)CC[C@@H]3C)[C@@H](C)C[C@H]2C)O[C@@]12CC[C@@](C)([C@H]1CC[C@](O)(CC)[C@H](C)O1)O2` [Ironomycin], the IC50 worked out at 14 nM in the test on KG1; 16 nM with KASUMI-1; 26 nM with HL-60; 30 nM in the test on NOMO-1; 45 nM in the test with SKM-1; 47 nM in the test with NB4. The IC50 is 61 nM in the test with MV4-11; 70 nM in the test with MOLM-13; 118 nM in the test with OCI-AML3; 260 nM in the test with HEL 92.1.7; 410 nM in the test on K 562; 14 to 410 nM in the test on human AML cell lines. Moreover, in the test with AML cell lines, the “cell death (PI staining)” value was “rapid cell death”. For the same compound, the proliferation result in the test with AML cell lines was “proliferation block in a dose dependent manner”. Also, the survival result in [1] (ironomycin 1 mg/kg IP) is “did not result in any survival advantage”. For the same compound, in test [2], the “cleavage of caspase 3 and PARP1” value is on record as “did not cleaved caspase 3 nor PARP1”. The cell death entry in the test with WT MV4; 11 cell line [3] is listed as “induce cell death”. The lysosomal iron result in test [4] is recorded as “increased lysosomal iron”. The “total iron in mitochondria” value in [5] is “decrease in total iron into the mitochondria”. Moreover, the “mitochondrial ROS” value in [6] is on record as “increased mitochondrial ROS”. The lipid peroxidation entry in test [7] is “induced a lipid peroxidation”. The cristae structure entry in test [8] was “disturbed the cristae structure”. The “efficacy in killing AML cells” value in the test on WT MV4; 11 cell line [9] (increased glucose concentration) was “higher efficacy”; with WT MV4; 11 cell line [9] (low glucose conditions), “less efficient”. In addition, in test [10], the “potency relative to Salinomycin” value is on record as “ten times more potent”.
Regarding Venetoclax [reference compound], in test [11], the impaired cell viability is 6-40%. In addition, the survival result in [1] (venetoclax 75 mg/kg oral gavage) is “did not result in any survival advantage”. In addition, in the test with WT MV4; 11 cell line [3], the cell death result is on record as “induce cell death”.
